ChEMBL document CHEMBL5050861 (2021)
pIC50: −log10 of the molar value. Converted amounts (≈) assume the structure as drawn.

What was measured:
[1] = Inhibition of recombinant mouse GALK1 using ATP as substrate incubated for 1 hr and measured by Kinase-Glo assay; details: for pIC50: read-out: IC50
[2] = Kinetic aqueous solubility of the compound; assay type: physicochemical; details: buffer; read-out: Kinetic_solubility
[3] = species: Homo sapiens; test: Inhibition of human GALK1 K252A/E253A double mutant relative to control; design: concentration or dose not given beside the values; details: concentration not given here
[4] = Inhibition of human GALK1 K252A/E253A double mutant; details: read-out: IC50
[5] = Stability of compound in rat microsomes assessed as half-life; assay type: ADME, Microsome
[6] = Permeability of compound by PAMPA assay; assay type: ADME; details: for Papp: read-out: permeability

| Structure (SMILES) | pIC50 [1] | solubility kinetic [2] [µg/mL] | inhibition [3] [%] | pIC50 [4] | half-life [5] [min] | Papp [6] [×10⁻⁶ cm/s] | IC50 [1] | permeability [6] |
| --- | --- | --- | --- | --- | --- | --- | --- | --- |
| CC1=C(C(=O)Nc2cc(C(=O)O)ccn2)C(c2ccccc2Cl)N=C(Nc2nc3ccc(Cl)cc3o2)N1 (configuration not stated) | 5.21 | 6.3 (≈ 11.7 µM) | 100 | 5.65 | > 30 | < 10 |  |  |
| CC1=C(C(=O)Nc2cc(C(=O)O)ccn2)C(c2ccc(F)cc2Cl)N=C(Nc2nc3ccc(F)cc3o2)N1 (configuration not stated) | 5.36 | 40.6 (≈ 75.3 µM) | 100 | 6.59 | > 30 | < 1 |  |  |
| CC1=C(C(=O)Nc2cc(C(=O)O)ccn2)C(c2ccccc2Cl)N=C(Nc2nc3ccccc3o2)N1 (racemic) | 5.16 | > 74 | 88 | 6.01 | > 30 |  |  |  |
| CC1=C(C(=O)NCc2cncn2C)C(c2ccccc2Cl)N=C(Nc2nc3ccccc3o2)N1 (configuration not stated) | 5.16 | 42 (≈ 88.2 µM) | 98 | 5.85 | 8.87 |  |  |  |
| CC1=C(C(=O)Nc2ccc(C(=O)O)cc2)C(c2ccccc2Cl)N=C(Nc2nc3ccccc3o2)N1 (configuration not stated) | 5.21 | < 1 | 100 | 5.85 | > 30 |  |  |  |
| CC1=C(C(=O)Nc2cc(C(=O)O)ccn2)C(c2cccc(Cl)c2Cl)N=C(Nc2nc3ccc(F)cc3o2)N1 (configuration not stated) | 4.66 | 55.5 (≈ 99.9 µM) | 100 | 5.44 | > 30 | < 10 |  |  |
| CC1=C(C(=O)Nc2cc(C(=O)O)ccn2)C(c2ccccc2Cl)N=C(Nc2nc3cccc(C)c3o2)N1 (configuration not stated) | 5.16 | > 76 | 100 | 6.44 | > 30 | < 10 |  |  |
| COc1ccc(C2N=C(Nc3nc4ccc(F)cc4o3)NC(C)=C2C(=O)Nc2cc(C(=O)O)ccn2)c(Cl)c1 (configuration not stated) | 5.51 | 8.3 (≈ 15.1 µM) | 100 | 6.52 | > 30 | < 10 |  |  |
| CC1=C(C(=O)NCc2nccn2C)C(c2ccccc2Cl)N=C(Nc2nc3ccccc3o2)N1 (configuration not stated) | 4.86 | 23 (≈ 48.3 µM) | 94 | 4.96 | 6.42 | > 1110 |  |  |
| COc1ccc2oc(NC3=NC(c4ccccc4Cl)C(C(=O)Nc4cc(C(=O)O)ccn4)=C(C)N3)nc2c1 (configuration not stated) | 4.91 | > 79 | 100 | 5.70 | > 30 | < 1 |  |  |
| CC1=C(C(=O)Nc2cc(C(=O)O)ccn2)C(c2ccccc2Cl)N=C(Nc2nc3cccc(Cl)c3o2)N1 (configuration not stated) | 5.01 | 57.5 (≈ 107 µM) | 100 | 6.00 | > 30 | < 1 |  |  |
| CC1=C(C(=O)Nc2nnc(C)s2)C(c2ccccc2Cl)N=C(Nc2nc3ccccc3o2)N1 (configuration not stated) | 4.97 | < 1 | 95 | 5.41 | > 30 |  |  |  |
| CC1=C(C(=O)Nc2cc(C(=O)O)ccn2)C(c2ccc(Cl)cc2Cl)N=C(Nc2nc3ccc(F)cc3o2)N1 (configuration not stated) | 5.41 | < 1 | 85 | 6.46 | > 30 | < 1 |  |  |
| CC1=C(C(=O)Nc2cc(C(=O)O)ccn2)C(c2cccc(F)c2Cl)N=C(Nc2nc3ccc(F)cc3o2)N1 (configuration not stated) | 4.81 | < 10000 | 100 | 5.74 | < 10 | < 10 |  |  |
| CC1=C(C(=O)Nc2cc(C(=O)O)ccn2)C(c2ccc(C)cc2Cl)N=C(Nc2nc3ccc(F)cc3o2)N1 (racemic) | 5.51 | 2.8 (≈ 5.23 µM) | 100 | 6.87 | > 30 |  |  |  |
| CC1=C(C(=O)Nc2cc(C(=O)O)ccn2)C(c2cccc(C(N)=O)c2)N=C(Nc2nc3ccc(F)cc3o2)N1 (configuration not stated) | 4.66 | > 78 | 90 | 5.42 | > 30 | < 1 |  |  |
| CC1=C(C(=O)Nc2cc(C(=O)O)ccn2)C(c2cccc(C(F)(F)F)c2Cl)N=C(Nc2nc3ccc(F)cc3o2)N1 (configuration not stated) | 4.56 | 70.1 (≈ 119 µM) | 97 | 5.62 | > 30 | < 10 |  |  |
| COc1cccc2nc(NC3=NC(c4ccccc4Cl)C(C(=O)Nc4cc(C(=O)O)ccn4)=C(C)N3)oc12 (configuration not stated) |  | 65.7 (≈ 123 µM) | 80 | < 4.82 | > 30 | < 1 | Not Active |  |
| CC1=C(C(=O)NCc2cnn(C)c2)C(c2ccc(C)cc2Cl)N=C(Nc2nc3cccc(N)c3o2)N1 (configuration not stated) | 5.66 | 4.47 (≈ 8.85 µM) |  | 7.33 | 14.1 |  |  | 25.28 10^-6 cm/s |
| CN(C)CCNC(=O)C1CC(=O)C2=C(C1)NC(Nc1nc3ccccc3o1)=NC2c1ccccc1Cl (configuration not stated) | 4.91 | 61.8 (≈ 122 µM) |  |  | > 30 | < 9.8 |  |  |
| CC1=C(C(=O)Nc2cc(C(=O)O)ccn2)C(c2cccc([N+](=O)[O-])c2Cl)N=C(Nc2nc3ccc(F)cc3o2)N1 (configuration not stated) | 4.46 | > 84 |  |  | > 30 | < 1 |  |  |
| CC1=C(C(=O)Nc2nncs2)C(c2ccccc2Cl)N=C(Nc2nc3ccccc3o2)N1 (configuration not stated) | 5.11 | < 1 | 96 | 5.47 | > 30 |  |  |  |

| Structure (SMILES) | pIC50 [1] | solubility kinetic [2] [µg/mL] | inhibition [3] [%] | pIC50 [4] | half-life [5] [min] | Papp [6] [×10⁻⁶ cm/s] | IC50 [1] | permeability [6] |
| --- | --- | --- | --- | --- | --- | --- | --- | --- |
| CC1=C(C(=O)Nc2cccc(-c3cn[nH]c3)c2)C(c2ccccc2Cl)N=C(Nc2nc3ccccc3o2)N1 (configuration not stated) | 4.41 | < 1 |  |  | > 30 | < 25.4 |  |  |
| CC1=C(C(=O)Nc2cc(C(=O)O)ccn2)[C@@H](c2ccccc2Cl)N=C(Nc2nc3cccc(N)c3o2)N1 | 4.46 | > 76 |  |  | > 30 | < 1.3 |  |  |
| CC1=C(C(=O)Nc2cc(C(=O)O)ccn2)C(c2ccc(C#N)cc2Cl)N=C(Nc2nc3ccc(F)cc3o2)N1 (configuration not stated) | 5.41 | > 81 |  |  | > 30 | < 1 |  |  |
| CC1=C(C(=O)Nc2cc(C(=O)O)ccn2)[C@@H](c2ccccc2Cl)N=C(Nc2nc3ccccc3o2)N1 | 4.71 | > 74 |  |  | > 30 | < 1 |  |  |
| COc1ccc([C@H]2N=C(Nc3nc4cccc(N)c4o3)NC(C)=C2C(=O)Nc2cc(C(=O)O)ccn2)c(Cl)c1 | 4.46 | > 81 |  |  | > 30 | < 1 |  |  |
| CC1=C(C(=O)Nc2cc(C(=O)O)ccn2)C(c2ccc(-c3cnc(C)nc3)cc2Cl)N=C(Nc2nc3ccc(F)cc3o2)N1 (configuration not stated) | 6.16 | > 90 |  |  | > 30 | < 1 |  |  |
| CC1=C(C(=O)NCc2cnn(C)c2)C(c2ccc(C)cc2Cl)N=C(Nc2nc3ccc(F)c(C(=O)O)c3o2)N1 (configuration not stated) | 4.66 | 26.3 (≈ 47.6 µM) |  |  | > 30 | < 1 |  |  |
| CC1=C(C(=O)Nc2ccnc(C(=O)O)c2)C(c2ccccc2Cl)N=C(Nc2nc3ccccc3o2)N1 (configuration not stated) | 5.51 | > 74 |  |  | > 30 | < 1 |  |  |
| CC1=C(C(=O)Nc2nnc(-c3cccnc3)s2)C(c2ccccc2Cl)N=C(Nc2nc3ccc(F)cc3o2)N1 (configuration not stated) | 4.41 | < 1 |  |  | > 30 | < 9.9 |  |  |
| O=C1CC(C(=O)N2CCNCC2)CC2=C1C(c1ccccc1Cl)N=C(Nc1nc3ccccc3o1)N2 (configuration not stated) | 5.11 | 23.9 (≈ 47.3 µM) |  |  | 30 | < 4.7 |  |  |
| CC1=C(C(=O)NCc2ccc(C(=O)O)cc2)C(c2ccccc2Cl)N=C(Nc2nc3ccccc3o2)N1 (configuration not stated) | 4.96 | 47 (≈ 91.1 µM) |  |  | > 30 | < 1 |  |  |
| CC1=C(C(=O)Nc2cc(C(=O)O)ccn2)C(c2ccc(C)cc2Cl)N=C(Nc2nc3c(o2)CCCC3)N1 (configuration not stated) | 5.36 | > 52 |  |  | > 30 | < 1.8 |  |  |
| O=C(O)CNC(=O)C1CC(=O)C2=C(C1)NC(Nc1nc3ccccc3o1)=NC2c1ccccc1Cl (configuration not stated) | 5.31 | 58.2 (≈ 118 µM) |  |  | > 30 | < 1 |  |  |
| COP(=O)(OC)C1=C(C)NC(Nc2nc3ccccc3o2)=NC1c1ccccc1Cl (configuration not stated) | 4.86 | 12.2 (≈ 27.3 µM) |  |  | 5.35 |  |  | 1813.86 10^-6 cm/s |
| CC1=C(C(=O)NCCN(C)C)C(c2ccccc2Cl)N=C(Nc2nc3ccccc3o2)N1 (configuration not stated) | 4.81 | > 67 |  |  | > 30 | > 1230 |  |  |
| CC1=C(C(=O)Nc2nnc(-c3cccnc3)s2)C(c2ccccc2Cl)N=C(Nc2nc3cc(C)ccc3o2)N1 (configuration not stated) | 4.96 | < 1 |  |  | > 30 | < 1.5 |  |  |
| CC1=C(C(=O)NCc2cn(C)cn2)C(c2ccccc2Cl)N=C(Nc2nc3ccccc3o2)N1 (racemic) | 5.11 | 26.6 (≈ 55.9 µM) | 90 | 6.11 | 14.6 |  |  |  |
| CC1=C(C(=O)Nc2cc(-c3nn[nH]n3)ccn2)C(c2ccc(C)cc2Cl)N=C(Nc2nc3ccc(F)cc3o2)N1 (configuration not stated) | 5.01 | < 1 |  |  | > 30 | < 1 |  |  |
| CC1=C(C(=O)Nc2ccc(C#N)cc2)C(c2ccccc2Cl)N=C(Nc2nc3ccccc3o2)N1 (configuration not stated) | 4.86 | < 1 |  |  | 25.3 | < 18.7 |  |  |
| CC1=C(C(=O)NCc2cncs2)C(c2ccccc2Cl)N=C(Nc2nc3ccccc3o2)N1 (configuration not stated) | 4.91 | < 1 | 84 | 5.92 | 6.43 |  |  |  |
| CC1=C(C(=O)Nc2ncc(C(=O)O)s2)C(c2ccccc2Cl)N=C(Nc2nc3ccccc3o2)N1 (configuration not stated) |  | > 75 | 99 | 5.77 | > 30 | < 1 |  |  |
| CC1=C(C(=O)Nc2cccc(CO)c2)C(c2ccccc2Cl)N=C(Nc2nc3ccccc3o2)N1 (configuration not stated) | 5.01 | < 1 |  |  | > 30 |  |  | 1124.1 10^-6 cm/s |
